Results taken from patent publication US20250345275A1, “Micromolar Halogenated Fluorescein Assists in Full Skin-Thickness Wound Healing” (priority 2024, published 2025).
Where “and” joins values, the source holds several entries; their conditions need not be identical. Equal entries are not always repeated. Entries after “also recorded” stand apart in the source; their conditions may differ.

How the values were obtained:
[1] = system: full-thickness cutaneous wounds; assay: Wound erythema index, DermaLab Combo; type: in vivo, BALB/c mice
Procedure: (§1) Animals were placed under general anesthesia and a 10-mm diameter TEWL probe was placed directly over each wound ensuring uniform coverage and forming a seal immediately around the wound. Following environmental normalization to ambient temperature and relative humidity, TWEL was calculated at […]. A minimum of three TWEL measurements were obtained for each full-thickness wound and uninjured skin area. A color sensitive 7-mm diameter probe, insensitive to ambient light, was then placed over each wound to measure erythema; four measures were obtained for each wound. All wound erythema calculations were normalized to uninjured skin and reported as an index value over time.
as §1, with “At each time point prior to euthanasia, transepidermal water loss (TEWL) and wound erythema indices were measured using the validated DermaLab combo system (CortexTechnologies, Hadsund, Denmark). Animals” for “Animals”, “TEWL” for “TWEL”

[2] = system: full-thickness cutaneous wounds; assay: Transepidermal water loss (TEWL) over the wound, DermaLab Combo; type: in vivo, BALB/c mice; details: 0.01% RBS, no irradiation; for TEWL relative to usual (pre-injury) range: day 14 post-injury (FIG. 2B); for TEWL compared with vehicle alone: day 14 post-injury, p<0.0001 (FIG. 2B)
Procedure: as §1
as §1, with “At each time point prior to euthanasia, transepidermal water loss (TEWL) and wound erythema indices were measured using the validated DermaLab combo system (CortexTechnologies, Hadsund, Denmark). Animals” for “Animals”, “TEWL” for “TWEL”

[3] = PV-10 as RB source, delivered intratumorally; cited from earlier work
[4] = Complete blood count and blood chemistry panel; type: in vivo, BALB/c mice
Source text: (§2) Primary outcomes assessed safety through analysis of full complete blood count (CBC), comprehensive blood chemistry, body and organ weight. Secondary outcomes analyzed wound closure, epidermal water loss, erythema, and comprehensive wound histology.
(§3) In the primary outcome and measures and observations, the treated animals and a control group received a full CBC and comprehensive blood chemistry panel, as well as observations of body weight food consumption, and organ appearance. Secondarily, wound closure, epidermal water loss erythema and wound histology were examined.
(§4) to determine the effects of rose bengal on blood parameters, blood samples were collected at euthanasia through cardiac puncture and were analyzed for complete blood count using an Abaxis VETSCAN® HM5 Hematology Analyzer Allied Analytic, LLC., Tampa, FL. The blood components analyzed included: white blood cells [WBC], lymphocytes [LYMPH], monocytes [MONO], neutrophils [NEUT], red blood cells [RBC], hemoglobin [HGB], hematocrit [HCT], mean corpuscle volume [MCV], mean corpuscle hemoglobin [MCH], mean corpuscle hemoglobin concentration [MCHC], platelets [PLT], and mean platelet volume [MPV]. Blood chemistry was also analyzed using an Abaxis VETSCAN® VS2 Chemistry Analyzer—Diagnostics to determine liver and Pancreas function through Albumin [ALB], Alkaline phosphatase [ALP], Alanine aminotransferase [ALT], Total bilirubin [tBIL], Total protein [TPRT], Globulin [GLOB], and Amylase [AMY]. Glucose & electrolyte levels were determined by measuring Glucose [GLU], Calcium [CA], Phosphorus [PHOS], Sodium [NA], and Potassium [K]. Kidney Function was assessed through Creatinine [CRE] and Blood urea nitrogen [BUN] levels.

[5] = non-medical grade rose bengal, photoactivation with 550 nm MGL; cited from earlier work
[6] = Tolerated bolus dose on intravasation after intratumoral PV-10; type: in vivo; details: equivalent of the 1500 mg bolus
Procedure: The wounds were treated with an aqueous pharmaceutical composition prepared using a PV-10®-based rose bengal formulation. PV-10® is a sterile, non-pyrogenic 10% solution of disodium RB in 0.9% saline for injection. Using PV-10®, as its RB source, RB has been tolerated at a bolus dose of 1500 mg upon intravasation when delivered intratumorally; this equates to an exposure of approximately 300 mg/L in the bloodstream (300 μM RB).

[7] = system: full-thickness cutaneous wounds; assay: Tissue ROS generation in full-thickness injury; type: in vivo, Balb/c mice; details: RB phototherapy
Source text: Following functional and planimetric measurements, animals were euthanized and the dorsal skin, inclusive down to underlying facia and dorsal musculature, was excised; care was employed to not disrupt any open wound post-mortem and maintain tissue integrity. The left-side wound and surrounding uninjured skin was directly transferred into a flat position histology cassette and the right-side wound was immediately snap-frozen in liquid nitrogen for reactive oxygen species and molecular analyses. Histology cassettes were then immersed in 10% neutral buffer formalin for 72 hours and subsequently placed in 70% ethanol thereafter. Uninjured skin tissue for each animal was also collected and preserved for future analyses.
Data are presented as mean±SD with n=3-6 animals per group

[8] = system: full-thickness cutaneous wounds; assay: Wound closure by planimetry of digital images; type: in vivo, BALB/c mice; details: for wound closure compared with vehicle alone: 0.01% RB, no irradiation, day 3 post-injury (FIG. 4)
Procedure: (§5) A Balb/C mice excision model was used with a cutaneous full-thickness injury made by a 6-mm diameter punch biopsy. The mice were 7-weeks old and 52 animals were used in the studies discussed herein.
(§6) Animals were administered the RB-containing PF-127-containing hydrogel every other day. A total of three animal treatment groups were studied along with two control groups. one group received vehicle plus light treatment, whereas the other group received vehicle without light. One treatment group of mice received 0.1% RB-containing hydrogel with irradiation for 30 minutes using monochromatic green light (MGL), λ=532 nm at a distance of 2.5 cm that provided […] and a dose of 35J/cm^2. A second treatment group also received 0.1% RB-containing hydrogel, but without MGL irradiation. The third treatment group received 0.01% RB-containing hydrogel without MGL irradiation.
Before surgery, animals received buprenorphine (0.1 mg kg^−1) for pre-procedural analgesia, and inhaled isoflurane (0.2-1.0%) was continuously administered throughout the procedure. The dorsum of the animal was shaved, a depilatory cream was applied to completely remove all dorsal hair, and the area was scrubbed with betadine antiseptic. The animal was laid in the right lateral decubitus position and using forceps, the dorsal skin was stretched, and a 6-mm punch biopsy was used to create bilateral full-thickness cutaneous wounds. Next, a 0.5 mm-thick silicone ring was sutured in place through the panniculus carnosus around each wound to ensure wounds healed primarily through re-epithelialization.
Animals were then randomized into treatment groups as follows: (1) Saline control in the dark, (2) Saline control with MGL irradiation, (3) Hydrogel vehicle in the dark, (4) Hydrogel vehicle with MGL irradiation, (5) RB in the dark, and (6) RB with MGL irradiation. Treatment was applied directly to the wound bed (800 uL per wound) and spread using a sterile surgical spatula to ensure even and uniform thickness over the wound.
Animals were then placed in a separate light-sealed and heated enclosure in a sternal position to expose dorsal wounds and remained under general isoflurane anesthesia. All other exposed portions of the body were then covered with sterile wrap to expose only the wounds. […] Animals were euthanized at 3-, 7-, and 14-days post-injury when wound healing parameters were assessed.
After initial surgery and at each study time point post-injury, color digital images were obtained for each wound. […] Wound planimetry was calculated using ImageJ software (ver. 1.53) by tracing wound edges yielding a surface area in […]. Wound closure was calculated as follows: […]

[9] = Body weight, survival, adverse events and organ examination in mice with full-thickness wounds; type: in vivo, BALB/c mice; details: for loss of body weight: 3 and 7 days post-injury (FIG. 1A)
Procedure: Animals: The Institutional Animal Care and Use Committee of the University of Texas Medical Branch in Galveston (UTMB) approved all protocols and studies were conducted in accordance with animal welfare regulations. Healthy 7-week-old male BALB/c mice (N=58) (strain 028, Charles River Laboratories, Houston, Texas, USA) 18-22 g were socially housed in temperature-and light-controlled facilities at UTMB with free access to food and water. Animals were acclimatized for one week before surgical procedures.
as §5, §6, §2, §3, §4

[10] = system: full-thickness cutaneous wounds; assay: Number of blood vessels in the wound area (smooth muscle actin staining); type: in vivo, BALB/c mice; details: 0.01% RBS in vehicle, p<0.05 (FIG. 6); group not clearly stated
[11] = 0.01% RBS, no irradiation, day 7 post-injury, p<0.0001 (FIG. 3B)
[12] = 0.01% RB every other day without photoactivation
[13] = 0.1% RB every other day with or without photoactivation
[14] = 0.1% RB every other day with or without photoactivation, out to 7 days
[15] = 0.01% RBS, no irradiation, day 14 post-injury

O=C1OC2(c3cc(I)c(O)c(I)c3Oc3c2cc(I)c(O)c3I)c2c(Cl)c(Cl)c(Cl)c(Cl)c21 [RB, 4,5,6,7-tetrachloro-2′, 4′, 5′, 7′-tetraiodo-fluorescein]
erythema index compared with vehicle alone [1, 11]: significantly increased
erythema, day 3 versus day 7 ([1]; 0.1% RB, days 3 and 7 post injury (FIG. 3A)): about the same
TEWL relative to usual (pre-injury) range [2]: about at the normal level
TEWL compared with vehicle alone [2]: significantly reduced
tolerated bolus dose upon intravasation [3]: 1500 mg
other chemistries [4, 12]: within normal ranges
Erythrocytes and platelets size, morphology, count ([4]; 0.01% RB every other day without photoactivation, out to 14 days): normal
Leukocyte count ([4]; 0.01% RB every other day without photoactivation, out to 14 days post-injury/treatment): normal
mean amylase ([4]; 0.01% RB every other day without photoactivation, all groups): Elevated
other chemistries [4, 13]: within normal ranges
Erythrocytes and platelets size, morphology, count [4, 14]: normal
Leukocyte count ([4]; 0.1% RB every other day with or without photoactivation, out to 7 days post-injury): normal
mean amylase ([4]; 0.1% RB every other day with or without photoactivation, all treated groups): Elevated
wound closure [5]: accelerates wound closure
wound healing [5]: improves wound healing
exposure in the bloodstream [6]: approximately 300 mg/L and 300 μM
tissue ROS ([7]; 3 days post-injury, versus all other treatments): significantly increased tissue ROS
tissue ROS ([7]; day 14): abates to nominal levels
tissue ROS ([7]; throughout 7 days, versus all other treatments): sustained
wound closure compared with vehicle alone [8]: accelerates wound closure
wound closure compared with saline- or vehicle-treated wounds ([8]; RB with or without MGL irradiation, 3 and 7 days after injury): significantly closes full-thickness wounds faster
wound closure compared with every other treatment group ([8]; photoactivated RB, 14 days post-injury, p<0.05): significantly increased wound closure
adverse events [9, 12]: no adverse events noted
survival through time course ([9]; 0.01% RB every other day without photoactivation, n=33): All animals survived
Mean body mass ([9]; 0.01% RB every other day without photoactivation, throughout treatment): maintained
body weight ([9]; 0.01% RB, no irradiation, day 14 post-injury (between day 7 and 14)): slight weight gains; also recorded: gained weight; also recorded: slight increase
adverse events [9, 13]: no adverse events noted
survival through time course ([9]; 0.1% RB every other day with or without photoactivation, n=19): All animals survived
mean body mass loss [9, 14]: ~5%
body weight ([9]; 0.1% RB with and without irradiation, first seven days post-injury): lost weight
Body weight and gross examination of internal organs ([9]; at euthanasia): did not show any signs of toxicity
loss in body or organ weight ([9]; either treatment regimen (single or multidose)): No loss
toxicity / safety for wound healing applications ([9]; single (photoactivated) and multidose (ambient light, covered) topical application to full-thickness wounds): did not illicit toxicity
body weight ([9]; vehicle containing 0.01% RB, no irradiation, days 3 and 7 post-injury (FIG. 1B)): constant weights; also recorded: maintained their weights

O=C([O-])c1c(Cl)c(Cl)c(Cl)c(Cl)c1-c1c2cc(I)c(=O)c(I)c-2oc2c(I)c([O-])c(I)cc12.[Na+].[Na+] [RBS, rose bengal disodium]
erythema index compared with vehicle alone [1, 11]: statistically significant difference
erythema index compared with vehicle alone [1, 15]: not statistically different
erythema index relative to usual values [1, 15]: very similar to the usual erythema index values
TEWL relative to usual (pre-injury) range [2]: back at their usual range
TEWL compared with vehicle alone [2]: statistically significant difference
wound closure compared with vehicle alone [8]: statistically significantly less
loss of body weight ([9]; 0.1% RBS with irradiation (MGL)): approximately 5%
loss of body weight ([9]; 0.1% RBS without irradiation): approximately 5%
number of blood vessels, day 7 versus day 3 post-injury [10]: statistically greater
